The values that follow come from patent US9434743B2, “Indazole derivatives” (TAKEDA PHARMACEUTICAL COMPANY LIMITED, priority 2012, dated 2016).

Assay [1] deals with T1, human MetAP2 enzyme (Homo sapiens, UniProt P50579). The experiment in a line: MetAP2 enzyme assay, enzyme complexed with cobalt ions. Conditions: MetAP2 Co pIC50, MetAP2 enzyme complexed with cobalt ions; Met-AMC substrate at Km.
Assay [2] has as its target T1, human MetAP2 enzyme. The experiment in a line: MetAP2 enzyme assay, enzyme complexed with manganese ions. Conditions: MetAP2 Mn pIC50, MetAP2 enzyme complexed with manganese ions; Met-AMC substrate at Km.

The structures appear in SMILES notation.

T1 sequence (P50579 whole entry): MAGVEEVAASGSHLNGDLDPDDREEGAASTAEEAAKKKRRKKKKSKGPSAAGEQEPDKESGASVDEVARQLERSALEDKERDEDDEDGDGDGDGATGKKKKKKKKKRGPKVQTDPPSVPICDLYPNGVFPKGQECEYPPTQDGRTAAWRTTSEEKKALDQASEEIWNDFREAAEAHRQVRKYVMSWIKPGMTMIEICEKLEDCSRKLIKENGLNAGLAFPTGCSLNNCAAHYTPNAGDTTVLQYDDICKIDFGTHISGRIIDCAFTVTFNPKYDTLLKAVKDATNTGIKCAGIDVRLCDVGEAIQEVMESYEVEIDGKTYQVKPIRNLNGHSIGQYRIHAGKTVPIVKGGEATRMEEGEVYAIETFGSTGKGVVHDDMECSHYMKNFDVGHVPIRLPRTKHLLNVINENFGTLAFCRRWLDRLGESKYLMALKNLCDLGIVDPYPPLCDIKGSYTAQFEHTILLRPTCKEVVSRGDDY

The term IC50 denotes the point on the concentration scale where inhibition reaches its midpoint. A lower IC50 goes with greater potency. With `O=C(NCCO)c1ccc(F)c(-c2cc(C(F)(F)F)cc3[nH]ncc23)c1` [Example 360, 4-fluoro-N-(2-hydroxyethyl)-3-(6-(trifluoromethyl)-1H-indazol-4-yl)benzamide], the IC50 against human MetAP2 enzyme [1] was 39.8 nM; against human MetAP2 enzyme [2], 7.94 nM.
Take `Cc1cc(C(=O)N2CC(O)C2)ccc1-c1cc(C(F)(F)F)cc2[nH]ncc12` [Example 361, (3-hydroxyazetidin-1-yl)(3-methyl-4-(6-(trifluoromethyl)-1H-indazol-4-yl)phenyl)methanone]: the IC50 was 15.8 nM against human MetAP2 enzyme [1] and 10 nM at human MetAP2 enzyme [2].
For `COCCOc1ccc(-c2cc(C(F)(F)F)cc3[nH]ncc23)c(C)n1` [Example 362, 4-(6-(2-methoxyethoxy)-2-methylpyridin-3-yl)-6-(trifluoromethyl)-1H-indazole], in that order: 39.8 nM and 15.8 nM.
For `Cc1nn(CC(=O)N(C)C)c(C)c1-c1cc(C(F)(F)F)cc2[nH]ncc12` [Example 363, 2-(3,5-dimethyl-4-(6-(trifluoromethyl)-1H-indazol-4-yl)-1H-pyrazol-1-yl)-N,N-dimethylacetamide], in that order: 79.4 nM and 15.8 nM.
For `Cc1nn(C[C@@H]2CCC(=O)N2)c(C)c1-c1cc(C(F)(F)F)cc2[nH]ncc12` [Example 364, (5S)-5-((3,5-dimethyl-4-(6-(trifluoromethyl)-1H-indazol-4-yl)-1H-pyrazol-1-yl)methyl)pyrrolidin-2-one], in that order: 79.4 nM and 20 nM.
Consider `CS(=O)(=O)c1ccccc1-c1cc(C(F)(F)F)cc2[nH]ncc12` [Example 365, 4-(2-(methylsulfonyl)phenyl)-6-(trifluoromethyl)-1H-indazole], for which the IC50 against human MetAP2 enzyme [1] is 1580 nM; on human MetAP2 enzyme [2] it was 79.4 nM.
`Cc1nn(CC(=O)N2CC(O)C2)c(C)c1-c1cc(C(F)(F)F)cc2[nH]ncc12` [Example 366, 2-(3,5-dimethyl-4-(6-(trifluoromethyl)-1H-indazol-4-yl)-1H-pyrazol-1-yl)-1-(3-hydroxyazetidin-1-yl)ethanone]: the IC50 against human MetAP2 enzyme [1] was 50.1 nM; at human MetAP2 enzyme [2], 15.8 nM.
As for `CNC(=O)Cn1nc(C)c(-c2cc(C(F)(F)F)cc3[nH]ncc23)c1C` [Example 367, 2-(3,5-dimethyl-4-(6-(trifluoromethyl)-1H-indazol-4-yl)-1H-pyrazol-1-yl)-N-methylacetamide], the IC50 is 50.1 nM at human MetAP2 enzyme [1] and 15.8 nM against human MetAP2 enzyme [2].
For `Cc1ccc(C(=O)NCCO)cc1-c1cc(C(F)(F)F)cc2[nH]ncc12` [Example 368, N-(2-hydroxyethyl)-4-methyl-3-(6-(trifluoromethyl)-1H-indazol-4-yl)benzamide], in that order: 31.6 nM and 12.6 nM.
For `Cc1ccc(C(=O)N2CC(O)C2)cc1-c1cc(C(F)(F)F)cc2[nH]ncc12` [Example 369, (3-hydroxyazetidin-1-yl)(4-methyl-3-(6-(trifluoromethyl)-1H-indazol-4-yl)phenyl)methanone], in that order: 31.6 nM and 10 nM.
For `Cc1ccc(C(=O)N2CCC(O)C2)cc1-c1cc(C(F)(F)F)cc2[nH]ncc12` (centres unmarked) [Example 370, (3-hydroxypyrrolidin-1-yl)(4-methyl-3-(6-(trifluoromethyl)-1H-indazol-4-yl)phenyl)methanone], in that order: 126 nM and 31.6 nM.
Turning to `Cc1ccc(C(=O)N2CCC(CO)C2)cc1-c1cc(C(F)(F)F)cc2[nH]ncc12` (centres unmarked) [Example 371, (3-(hydroxymethyl)pyrrolidin-1-yl)(4-methyl-3-(6-(trifluoromethyl)-1H-indazol-4-yl)phenyl)methanone], the figures for the half-inhibitory concentration (IC50) on human MetAP2 enzyme [1] and against human MetAP2 enzyme [2] were 50.1 nM and 15.8 nM, respectively.
For `Cc1ccc(C(=O)N2CCC(O)CC2)cc1-c1cc(C(F)(F)F)cc2[nH]ncc12` [Example 372, (4-hydroxypiperidin-1-yl)(4-methyl-3-(6-(trifluoromethyl)-1H-indazol-4-yl)phenyl)methanone], in that order: 100 nM and 31.6 nM.
Turning to `Cn1cc(-c2cc(C(F)(F)F)cc3[nH]ncc23)ccc1=O` [Example 373, 1-methyl-5-(6-(trifluoromethyl)-1H-indazol-4-yl)pyridin-2(1H)-one], the half-inhibitory concentration (IC50) is 126 nM against human MetAP2 enzyme [1] and 6.31 nM against human MetAP2 enzyme [2].
For `O=C(O)Cn1cc(-c2cc(C(F)(F)F)cc3[nH]ncc23)ccc1=O` [Example 374, 2-(2-oxo-5-(6-(trifluoromethyl)-1H-indazol-4-yl)pyridin-1(2H)-yl)acetic acid], in that order: 1580 nM and 63.1 nM.
For `CN1CCN(C(=O)c2cc(-c3cc(C(F)(F)F)cc4[nH]ncc34)c(=O)n(C)c2)CC1` [Example 375, 1-methyl-5-(4-methylpiperazine-1-carbonyl)-3-(6-(trifluoromethyl)-1H-indazol-4-yl)pyridin-2(1H)-one], in that order: 126 nM and 10 nM.
Consider `NS(=O)(=O)c1cc(F)c(-c2cc(C(F)(F)F)cc3[nH]ncc23)cc1F` [Example 376, 2,5-difluoro-4-(6-(trifluoromethyl)-1H-indazol-4-yl)benzenesulfonamide], for which the IC50 is 50.1 nM against human MetAP2 enzyme [1] and 5.01 nM on human MetAP2 enzyme [2].
As for `Cc1nc(C#N)ccc1-c1cc(C(F)(F)F)cc2[nH]ncc12` [Example 377, 6-methyl-5-(6-(trifluoromethyl)-1H-indazol-4-yl)picolinonitrile], the IC50 at human MetAP2 enzyme [1] was 50.1 nM; at human MetAP2 enzyme [2] it was 5.01 nM.
For the compound `O=S(=O)(NCCO)c1ccc(-c2cc(C(F)(F)F)cc3[nH]ncc23)cn1` [Example 378, N-(2-hydroxyethyl)-5-(6-(trifluoromethyl)-1H-indazol-4-yl)pyridine-2-sulfonamide], the IC50 is 63.1 nM against human MetAP2 enzyme [1] and 5.01 nM against human MetAP2 enzyme [2].
Consider `Cc1nc(C(N)=O)ccc1-c1cc(C(F)(F)F)cc2[nH]ncc12` [Example 379, 6-methyl-5-(6-(trifluoromethyl)-1H-indazol-4-yl)picolinamide], for which the IC50 on human MetAP2 enzyme [1] is 39.8 nM; at human MetAP2 enzyme [2], 6.31 nM.
For `Cc1nn(CC2(C)COC2)c(C)c1-c1cc(C(F)(F)F)cc2[nH]ncc12` [Example 380, 4-(3,5-dimethyl-1-((3-methyloxetan-3-yl)methyl)-1H-pyrazol-4-yl)-6-(trifluoromethyl)-1H-indazole], in that order: 398 nM and 25.1 nM.
For `Cc1c(-c2cc(C(F)(F)F)cc3[nH]ncc23)c(N)nn1C` [Example 381, 1,5-dimethyl-4-(6-(trifluoromethyl)-1H-indazol-4-yl)-1H-pyrazol-3-amine], in that order: 39.8 nM and 6.31 nM.
For `Cc1nc2[nH]c(O)nc2cc1-c1cc(C(F)(F)F)cc2[nH]ncc12` [Example 382, 5-methyl-6-(6-(trifluoromethyl)-1H-indazol-4-yl)-3H-imidazo[4,5-b]pyridin-2-ol], in that order: 12.6 nM and 6.31 nM.
Consider `Cc1nc(-n2cnnc2)ccc1-c1cc(C(F)(F)F)cc2[nH]ncc12` [Example 383, 4-(2-methyl-6-(4H-1,2,4-triazol-4-yl)pyridin-3-yl)-6-(trifluoromethyl)-1H-indazole], for which the IC50 at human MetAP2 enzyme [1] is 20 nM; at human MetAP2 enzyme [2] it was 5.01 nM.
For `Cc1nc(N2CCCC2)ccc1-c1cc(C(F)(F)F)cc2[nH]ncc12` [Example 384, 4-(2-methyl-6-(pyrrolidin-1-yl)pyridin-3-yl)-6-(trifluoromethyl)-1H-indazole], the 50% inhibitory concentration (IC50) at human MetAP2 enzyme [1] is 79.4 nM; against human MetAP2 enzyme [2], 15.8 nM.
For `O=C(c1cc(-c2cc(C(F)(F)F)cc3[nH]ncc23)ccn1)N1CC(O)C1` [Example 385, (3-hydroxyazetidin-1-yl)(4-(6-(trifluoromethyl)-1H-indazol-4-yl)pyridin-2-yl)methanone], in that order: 79.4 nM and 5.01 nM.
For `Cc1nn(CC(=O)NCCO)c(C)c1-c1cc(C(F)(F)F)cc2[nH]ncc12` [Example 386, 2-(3,5-dimethyl-4-(6-(trifluoromethyl)-1H-indazol-4-yl)-1H-pyrazol-1-yl)-N-(2-hydroxyethyl)acetamide], in that order: 63.1 nM and 12.6 nM.
For `Cc1nc(C(=O)NCCO)ccc1-c1cc(C(F)(F)F)cc2[nH]ncc12` [Example 387, N-(2-hydroxyethyl)-6-methyl-5-(6-(trifluoromethyl)-1H-indazol-4-yl)picolinamide], in that order: 25.1 nM and 6.31 nM.
With `Cc1cc2cncn2cc1-c1cc(C(F)(F)F)cc2[nH]ncc12` [Example 388, 4-(7-methylimidazo[1,5-a]pyridin-6-yl)-6-(trifluoromethyl)-1H-indazole], the IC50 on human MetAP2 enzyme [1] was 63.1 nM; against human MetAP2 enzyme [2] it was 7.94 nM.
Consider `Cc1[nH]c(=O)ccc1-c1cc(C(F)(F)F)cc2[nH]ncc12` [Example 389, 6-methyl-5-(6-(trifluoromethyl)-1H-indazol-4-yl)pyridin-2(1H)-one], for which the IC50 on human MetAP2 enzyme [1] was 50.1 nM; against human MetAP2 enzyme [2] it was 3.98 nM.
For `Cc1cc(=O)[nH]cc1-c1cc(C(F)(F)F)cc2[nH]ncc12` [Example 390, 4-methyl-5-(6-(trifluoromethyl)-1H-indazol-4-yl)pyridin-2(1H)-one], in that order: 39.8 nM and 6.31 nM.
For `COc1nc(C(N)=O)ccc1-c1cc(C(F)(F)F)cc2[nH]ncc12` [Example 391, 6-methoxy-5-(6-(trifluoromethyl)-1H-indazol-4-yl)picolinamide], in that order: 39.8 nM and 5.01 nM.
For `COc1nc(Cl)ccc1-c1cc(C(F)(F)F)cc2[nH]ncc12` [Example 392, 4-(6-chloro-2-methoxypyridin-3-yl)-6-(trifluoromethyl)-1H-indazole], in that order: 200 nM and 12.6 nM.
For `Cc1c(-c2cc(C(F)(F)F)cc3[nH]ncc23)ccc2ncnn12` [Example 393, 5-methyl-6-(6-(trifluoromethyl)-1H-indazol-4-yl)-[1,2,4]triazolo[1,5-a]pyridine], the IC50 against human MetAP2 enzyme [1] was 50.1 nM; at human MetAP2 enzyme [2] it was 6.31 nM.
